The supplement of paper PMC11616607

Legend:
Test in all cases: drug sensitivity score (DSS) from 5-point dose-response viability curve (DSS (area-under-curve based score)); higher = more sensitive (stronger growth inhibition or killing); extreme values may be limits of the assay
Details in all cases: exposure time: 72 h; concentration range: 5 concentrations over 10,000-fold range
CAOV3 = test system: CAOV3
Outline: (§1)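 Viability of ovarian cancer and normal ovarian cell lines was read by CellTiter-Glo luminescence after 3 days at 37°C and 5% CO2 in 384-well plates holding 1,500 cells per well. Drugs had been dispensed in DMSO or water with an Echo 550 at five concentrations over a 10,000-fold range. Using Breeze software, a drug sensitivity score was assigned per cell line and drug, higher scores meaning more sensitive, and zero means no response.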

COV318 = test system: COV318
Outline: as §1

COV362 = test system: COV362
Outline: as §1

HOSE1C = test system: HOSE1C
Outline: as §1

HOSE2C = test system: HOSE2C
Outline: as §1

JHOS2 = test system: JHOS2
Outline: as §1

Kuramochi = test system: Kuramochi
Outline: as §1

OV90 = test system: OV90
Outline: as §1

OVCAR4 = test system: OVCAR4
Outline: as §1

OVCAR5 = test system: OVCAR5
Outline: as §1

OVCAR8 = test system: OVCAR8
Outline: as §1

Ovsaho = test system: Ovsaho
Outline: as §1

| Compound | drug sensitivity score (CAOV3) | drug sensitivity score (COV318) | drug sensitivity score (COV362) | drug sensitivity score (HOSE1C) | drug sensitivity score (HOSE2C) | drug sensitivity score (JHOS2) | drug sensitivity score (Kuramochi) | drug sensitivity score (OV90) | drug sensitivity score (OVCAR4) | drug sensitivity score (OVCAR5) | drug sensitivity score (OVCAR8) | drug sensitivity score (Ovsaho) |
| --- | --- | --- | --- | --- | --- | --- | --- | --- | --- | --- | --- | --- |
| CC(C)(C)C[C@@H]1N[C@@H](C(=O)N[C@H]2CC[C@H](O)CC2)[C@H](c2cccc(Cl)c2F)[C@]12C(=O)Nc1cc(Cl)ccc12 | 0 | 0.3 | 1.2 | 14.7 | 16.9 | 0 | 1.5 | 2.1 | 0.1 | 0.4 | 0.4 | 1.4 |
| CCOc1ccn(-c2ccc(F)cc2)c(=O)c1C(=O)Nc1ccc(Oc2ccnc(N)c2Cl)c(F)c1 | 0 | 0 | 0 | 0 | 0 | 0 | 0 | 0 | 0 | 0 | 0 | 0 |
| CC[C@@H]1[C@H](F)C(=O)N[C@@H]1COc1nccc2cc(C(N)=O)c(OC)cc12 | 0.9 | 0 | 0 | 0 | 0 | 1.3 | 1.8 | 0.6 | 0.4 | 0.6 | 0.7 | 2.3 |
| CCc1cncnc1N1CCN(Cc2nc3ccc(C(F)(F)F)cc3[nH]2)CC1 | 0.9 | 1.1 | 0 | 0 | 0 | 0.8 | 1.1 | 2.9 | 2.3 | 2.8 | 3.1 | 1.2 |
| CCn1c(C(=O)N(C2CC2)C2CC2)cc2c3c(ncn3C)c(Nc3cc(C)n(C)n3)nc21 | 0 | 0.4 | 0.2 | 0 | 0 | 0 | 2.6 | 0.5 | 0.3 | 0 | 0 | 0 |
| CN(C)CC#Cc1ccc(OCCCc2sc(N3CCc4cccc(C(=O)Nc5nc6ccccc6s5)c4C3)nc2C(=O)O)c(F)c1 | 7.5 | 1.3 | 1.6 | 22.7 | 6.2 | 1.2 | 1.6 | 19.2 | 3.5 | 4.1 | 0 | 10.4 |
| CN(c1ncccc1CNc1nc(Nc2ccc3c(c2)CC(=O)N3)ncc1C(F)(F)F)S(C)(=O)=O | 7.4 | 1.9 | 3.5 | 4.6 | 3.9 | 5.1 | 5.5 | 5.9 | 4.7 | 6.1 | 4.3 | 5.7 |
| CNC(=O)c1ccc(C)c(-n2c(C)cc(OCc3ccc(F)cc3F)c(Br)c2=O)c1 | 0 | 0 | 0 | 0 | 0 | 0 | 0.7 | 0 | 0 | 0.6 | 0 | 0 |
| CNS(=O)(=O)Nc1nccc(Cc2c(C)c3ccc(Oc4ncccn4)cc3oc2=O)c1F | 3.3 | 0 | 0 | 0 | 0 | 0 | 0 | 6.3 | 1.7 | 0 | 0 | 0.3 |
| C[C@@]1(C(=O)Nc2ccc(F)nc2)CCCN1c1nc(Nc2cc(C3CC3)n[nH]2)c2cccn2n1 | 20.2 | 3.1 | 6.5 | 8.9 | 18.7 | 3.3 | 4.8 | 7.4 | 7.2 | 14.4 | 5.2 | 7.5 |
| C[C@H]1C[C@@H](n2c(Nc3ccc(OC(F)(F)F)cc3)nc3cc(CCC(=O)O)ccc32)CC(C)(C)C1 | 0 | 0 | 0 | 0 | 0 | 0 | 0 | 0 | 0 | 0 | 0.1 | 0 |
| Cc1c(-c2c(-c3ccc(F)o3)sc3ncnc(O[C@H](Cc4ccccc4OCc4ccnn4CC(F)(F)F)C(=O)O)c23)ccc(OCCN2CCN(C)CC2)c1Cl | 0 | 0.2 | 0.4 | 0 | 0 | 0 | 0 | 0.1 | 0.6 | 0.1 | 0 | 0 |
| Cc1c(-c2ccc(N3CCc4cccc(C(=O)Nc5nc6ccccc6s5)c4C3)nc2C(=O)O)cnn1CC12CC3CC(CC(C3)C1)C2 | 5.1 | 0 | 0 | 20.6 | 5.8 | 0 | 0 | 7.6 | 2.1 | 1 | 0.8 | 2.5 |
| Cc1ccc(C(=O)N(CCCN)[C@@H](c2oc3cc(Cl)ccc3c(=O)c2Cc2ccccc2)C(C)C)cc1 | 5.8 | 1 | 0.4 | 15.8 | 9.2 | 4.8 | 2.9 | 6.4 | 3.4 | 4.5 | 2.9 | 4.1 |
| Cc1nc(Nc2n[nH]c3c2CN(C(=O)N[C@H](CN(C)C)c2ccccc2)C3(C)C)c2sccc2n1 | 17.5 | 7.2 | 7.3 | 20.6 | 7.5 | 10.6 | 12.2 | 17 | 10.2 | 14.9 | 16.5 | 9 |
| Cc1nn(C)c(COc2ccc(N3CCN(S(=O)(=O)N(C)C)CC3)cc2)c1-c1cccc2c(CCCOc3cccc4ccccc34)c(C(=O)O)n(CCN3CCOCC3)c12 | 4.9 | 5.4 | 2.8 | 13.7 | 13.7 | 6.3 | 7.8 | 5.7 | 5.1 | 5.2 | 7.4 | 8.6 |
| N#Cc1ccc(COC[C@H]2O[C@@H](n3c(NCc4ccc(Cl)c(Cl)c4)nc4c(N)ncnc43)[C@H](O)[C@@H]2O)cc1 | 3.8 | 0.1 | 0.5 | 2.7 | 5.6 | 1 | 1.4 | 3.8 | 0.3 | 4.4 | 5.5 | 4.5 |
| NC[C@@](O)(c1ccc(Cl)cc1)c1ccc(-c2cn[nH]c2)cc1 | 0.5 | 3.3 | 0 | 8.6 | 6.1 | 2.8 | 0.1 | 0 | 1.1 | 0.7 | 1.1 | 0 |
| Nc1nccc(-c2c(-c3ccc(F)cc3)ncn2C2CCCCC2)n1 | 1.7 | 0 | 0 | 1.6 | 0.9 | 0 | 0.1 | 0 | 0 | 1.9 | 0.7 | 0 |
| Nc1ncnc2c1c(COc1cccc(Cl)c1)nn2C1CCOCC1 | 0 | 0 | 0 | 0 | 0 | 0 | 0.3 | 0 | 0 | 0.6 | 0 | 0 |
| O=C(Nc1ccc2[nH]nc(-c3ccncc3)c2c1)[C@@H]1CCN(CC(=O)N2CCN(c3ccc(-c4ncccn4)cc3)CC2)C1 | 12.2 | 0 | 4.9 | 0.2 | 1.1 | 8.4 | 13.2 | 23.5 | 1.7 | 13.4 | 6.7 | 14.1 |
| O=c1[nH]c(C2CCCN2)nc2c1oc1ccc(Cl)cc12 (stereo unspecified) | 3.5 | 0 | 0 | 2.6 | 0.9 | 0 | 0 | 0.2 | 0 | 4 | 0 | 0 |
| COc1ccc(C[C@H](NC(=O)[C@H](C)NC(=O)CN2CCOCC2)C(=O)N[C@@H](Cc2ccccc2)C(=O)C2(C)CO2)cc1 (stereo in doubt) [ONX-0914] | 17.9 | 12.3 | 17.9 | 27.9 | 21.3 | 16.1 | 11.6 | 19.8 | 17.1 | 18.2 | 17.7 | 19.6 |
| CC/C(=C(\c1ccc(O)cc1)c1ccc(OCCN(C)C)cc1)c1ccccc1 [4-hydroxytamoxifen] | 0.2 | 5.5 | 2 | 2.7 | 3 | 2.8 | 4.2 | 6 | 2.1 | 5.9 | 2.6 | 3.9 |
| Nc1ncnc2c1nc(N)n2[C@@H]1O[C@H](CO)[C@@H](O)[C@H]1O [8-amino-adenosine] | 22.6 | 15.1 | 20.4 | 4.1 | 4.9 | 28.2 | 24.5 | 20.1 | 19 | 23.5 | 20.5 | 26 |
| Nc1ncnc2c1nc(Cl)n2[C@@H]1O[C@H](CO)[C@@H](O)[C@H]1O [8-chloro-adenosine] | 11.2 | 3.7 | 7.6 | 0.5 | 3.5 | 9.4 | 5.1 | 3.7 | 8 | 11.9 | 13.2 | 18.5 |
| COc1cc2c(cc1OCCCN1CCCC1)N=C(N)C21CCC1 [A-366] | 0.3 | 0 | 1.2 | 0.8 | 0 | 0 | 1.2 | 5.7 | 0.1 | 0.4 | 1 | 0.3 |
| COc1ccc(S(=O)(=O)Nc2cccnc2Nc2ccc(O)cc2)cc1 [ABT-751] | 14.9 | 7.2 | 4.3 | 15.8 | 10.7 | 7.1 | 7.4 | 9.4 | 5 | 10.3 | 11.5 | 7 |
